Test [1] relates to CFPAC-1 cell line. Put plainly: MTS cytotoxicity assay, 72 hours. Type of test: cell-based. The conditions noted are these: Homo sapiens, CFPAC-1, 72 hours, prodrugs as nanoparticle dispersions. The procedure: (§1) The cytotoxicity of gemcitabine nanoparticles dispersion made from gemcitabine amphiphiles in the presence or absence of DMPC-cholesterol was evaluated in comparison to gemcitabine alone in several pancreatic cell lines including CF Pac-1, BxPC3, Panc-1 and MIA PaCa-2, MCF7and CACO2 cell lines. The cell lines were exposed to media with varying concentrations of the treatments (100-0.001 μM) and incubated for 72 hours. Cell viability was determined using the MTS assay and was conducted in triplicate to derive the IC50 values.

The test system of a further test is CACO2 cell line. Briefly: MTS cytotoxicity assay, 72 hours. Type of test: cell-based. The conditions noted are these: Homo sapiens, Caco-2, CACO2, 72 hours, prodrugs as nanoparticle dispersions. The procedure: as §1
Background: Tetrazolium dyes change colour on reduction, which living cells bring about.

In a further test the test system is BxPC3 cell line. Put plainly: MTS cytotoxicity assay, 72 hours. It is filed as cell-based. The conditions noted are these: Homo sapiens, BXPC-3, BxPC3, 72 hours. The procedure:
as §1

The test system of the next test is PANC-1 cell line. Briefly: MTS cytotoxicity assay, 72 hours. It is filed as cell-based. Particulars: Homo sapiens, PANC-1, 72 hours. The procedure: as §1
Another test has as its system MCF7 cell line. Briefly: MTS cytotoxicity assay, 72 hours. It is filed as cell-based. The conditions noted are these: Homo sapiens, MCF7, 72 hours, prodrugs as nanoparticle dispersions. The procedure: as §1
A further test has as its system MIAPaCa-2 cell line. Put plainly: MTS cytotoxicity assay, 72 hours. Type of test: cell-based. Particulars: Homo sapiens, MIA PaCa-2, MIAPaCa-2, 72 hours. The procedure:
as §1

For test [2], the system named is CFPAC-1 cell line. Particulars: 72 hours; read-out: IC50 of gemcitabine against the CFPAC-1 cell line; cited from earlier work.
For test [3], the system named is CFPAC-1 cell line-derived xenograft. Briefly: In vivo tumour inhibition, CFPAC-1 xenograft. Further details: species or system mice. The procedure:
All treatments were administered via IV injection twice a week for four weeks. The amount of gemcitabine administered in the Gem nanoparticles was 4.45 mg/kg, which is an order of magnitude less than the ordinary dose used in clinic. The doses were equimolar with the gemcitabine control group in order to allow for a direct comparison of the anti-tumour efficacy between groups. The amount of total lipid injected was 1 mg/dose. Gemcitabine is administered intravenously at a dose of 1000 mg/m2 to treat pancreatic cancer in humans. The dose administered here is equivalent to 13.35 mg/m2 of gemcitabine being injected into humans; 1.33% of the clinical dose of gemcitabine in humans. In other studies, the amount of gemcitabine injected into mice in vivo studies has ranged from 7-100 mg/kg.
At the end of the study, the tumours were harvested.

pIC50: −log10 of the molar value. Where two headings read alike, the source gives them in different places.

In the case of `Nc1ccn([C@@H]2O[C@H](CO)[C@@H](O)C2(F)F)c(=O)n1` [Gemcitabine, 2′,2′-difluoro-2′-deoxycytidine], the pIC50 in the test on CFPAC-1 cell line [1] was 7.19; in the test on CACO2 cell line it was 7.30; in the test with BxPC3 cell line, 7.65; in the test on PANC-1 cell line it was under 4.00; in the test on MCF7 cell line, 8.22; with MIAPaCa-2 cell line, 7.64. Besides, the pIC50 with CFPAC-1 cell line [2] is 7.48 to 8.21. The “Tumour size trend over time” value in test [3] (4.45 mg/kg gemcitabine equimolar, IV twice a week for four weeks) is “increased in size, however at a slower rate compared with the control PBS group”. In addition, the “Tumour volume as % of control tumour size” value in test [3] (4.45 mg/kg gemcitabine equimolar, IV twice a week for four weeks, 34 days) was 54%. In addition, in test [3] (end of study, control vs nanoparticles p<0.05), the “Average ex-vivo tumour weight, order of groups” value is given as “control group>Gemcitabine group>Gemcitabine nanoparticles”.

The term pIC50 denotes the IC50 on a negative log10 scale, so that one unit is a factor of ten.

These data come from US12503483B2, “Gemcitabine amphiphile prodrugs” (NANOMED HOLDINGS PTY LTD, priority 2018, dated 2025).
